Assay results published in ChEMBL document CHEMBL1130277, “Three-dimensional quantitative structure-activity relationships from molecular similarity matrices and genetic neural networks. 2. Applications” (J Med Chem, 1997).

How the values were obtained:
[1] = molecular target: T1, Aryl hydrocarbon receptor (Homo sapiens, UniProt P35869)
T1 sequence (P35869 whole entry): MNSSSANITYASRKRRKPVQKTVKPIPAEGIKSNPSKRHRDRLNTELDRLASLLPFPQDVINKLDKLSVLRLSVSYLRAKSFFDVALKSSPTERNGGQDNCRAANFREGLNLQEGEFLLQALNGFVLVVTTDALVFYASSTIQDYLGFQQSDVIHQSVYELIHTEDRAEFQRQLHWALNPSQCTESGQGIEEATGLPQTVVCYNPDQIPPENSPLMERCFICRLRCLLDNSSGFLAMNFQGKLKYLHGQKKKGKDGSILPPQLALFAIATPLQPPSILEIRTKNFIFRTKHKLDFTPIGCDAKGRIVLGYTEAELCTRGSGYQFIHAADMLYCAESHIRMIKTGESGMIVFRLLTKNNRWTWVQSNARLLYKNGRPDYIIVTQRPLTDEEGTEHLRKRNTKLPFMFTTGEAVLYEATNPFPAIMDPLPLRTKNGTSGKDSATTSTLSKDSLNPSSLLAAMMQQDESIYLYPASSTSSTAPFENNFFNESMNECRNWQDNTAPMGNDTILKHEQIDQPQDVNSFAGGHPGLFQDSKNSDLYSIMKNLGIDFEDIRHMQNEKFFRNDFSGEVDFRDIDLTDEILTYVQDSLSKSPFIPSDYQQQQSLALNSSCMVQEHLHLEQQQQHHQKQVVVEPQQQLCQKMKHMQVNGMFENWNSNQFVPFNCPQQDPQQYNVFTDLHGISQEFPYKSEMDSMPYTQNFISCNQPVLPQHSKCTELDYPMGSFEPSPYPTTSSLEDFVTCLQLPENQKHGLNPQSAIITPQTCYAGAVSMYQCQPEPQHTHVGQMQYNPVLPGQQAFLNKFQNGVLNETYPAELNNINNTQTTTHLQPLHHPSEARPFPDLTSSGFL
Description: Affinity on cytosolic Aromatic hydrocarbon receptor (Ah)

[2] = molecular target: Acetylcholinesterase (Homo sapiens, UniProt P22303)
Acetylcholinesterase, sequence (P22303 whole entry): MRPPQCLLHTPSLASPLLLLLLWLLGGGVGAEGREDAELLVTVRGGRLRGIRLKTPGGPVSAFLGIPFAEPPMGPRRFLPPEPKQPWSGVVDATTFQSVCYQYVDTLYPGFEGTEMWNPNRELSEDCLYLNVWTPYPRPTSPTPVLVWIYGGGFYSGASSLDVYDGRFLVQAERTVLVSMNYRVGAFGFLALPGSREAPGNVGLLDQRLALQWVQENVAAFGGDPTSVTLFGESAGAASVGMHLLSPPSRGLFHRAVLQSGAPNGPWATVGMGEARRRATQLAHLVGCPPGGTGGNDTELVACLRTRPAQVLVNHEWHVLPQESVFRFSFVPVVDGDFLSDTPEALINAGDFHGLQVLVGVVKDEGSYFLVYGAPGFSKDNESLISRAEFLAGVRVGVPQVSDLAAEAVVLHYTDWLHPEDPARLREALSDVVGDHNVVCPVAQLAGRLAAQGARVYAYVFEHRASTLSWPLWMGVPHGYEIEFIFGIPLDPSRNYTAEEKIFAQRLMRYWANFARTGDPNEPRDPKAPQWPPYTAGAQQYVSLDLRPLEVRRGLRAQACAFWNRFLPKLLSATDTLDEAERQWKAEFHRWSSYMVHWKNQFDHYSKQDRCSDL
Description: Inhibition acetylcholinesterase (AChE) enzyme.

[3] = molecular target: GABA-A receptor; anion channel
Description: Inhibition on Benzodiazepine receptor

Row | SMILES | EC50 [1] [µM] | IC50 [2] [µM] | further results
1 | Brc1ccc2c(c1)Oc1ccccc1O2 | 0.295 |  | 
2 | Clc1cccc2c1oc1ccccc12 | 1000 |  | 
3 | Clc1ccc2c(c1)oc1ccccc12 | 42 |  | 
4 | C[N+](C)(C)CCCBr |  | 87.9 | 
5 | CCCC(=O)SCC[N+](C)(C)C |  | 126 | 
6 | C=CCCC[N+](C)(C)C |  | 1130 | 
7 | Clc1cc(-c2ccccc2)c(Cl)c(Cl)c1Cl | 140 |  | 
8 | C[N+](C)(C)c1cccc(N)c1 |  | 192 | 
9 | Clc1ccc(-c2cc(Cl)c(Cl)c(Cl)c2Cl)cc1 | 4.1 |  | 
10 | c1ccc2c(c1)[nH]c1c2ncc2[nH]c3ccccc3c21 |  |  | pIC50 [3]: 8.4
11 | CC(C)(C)OC(=O)c1cc2c3ccccc3nc-2c[nH]1 |  |  | pIC50 [3]: 8
12 | Clc1cc(Cl)c2c(c1)oc1c(Cl)c(Cl)c(Cl)cc12 | 0.2 |  | 
13 | C[N+]1(C)CCO[C@@](O)(c2ccc(C#N)cc2)C1 |  | 11600 | 
14 | COc1cccc([N+](C)(C)C)c1C |  | 239 | 
15 | C[N+]1(C)CCO[C@@](O)(c2ccc(Cl)cc2)C1 |  | 8130 | 
16 | Clc1cc2oc3c(Cl)c(Cl)c(Cl)cc3c2cc1Cl | 0.0151 |  | 
17 | Clc1ccc2c(c1)oc1c(Cl)c(Cl)c(Cl)cc12 | 0.0251 |  | 
18 | Clc1cc2c(cc1Cl)Oc1c(Cl)c(Cl)cc(Cl)c1O2 | 1.1 |  | 
19 | C[N+](C)(C)CCCCI |  | 471 | 
20 | Clc1ccc2c(c1)Oc1c(Cl)c(Cl)c(Cl)c(Cl)c1O2 | 6.46 |  | 
21 | Clc1cc(Cl)c2c(c1)oc1ccc(Cl)cc12 | 85.1 |  | 

Row | SMILES | EC50 [1] [µM] | IC50 [2] [µM] | further results
22 | CC(=O)Oc1ccc(C)c([N+](C)(C)C)c1 |  | 5.33 | 
23 | Clc1ccc(-c2ccc(Cl)c(Cl)c2Cl)cc1Cl | 4.27 |  | 
24 | C[N+](C)(C)CCCl |  | 2390 | 
25 | Brc1cc2c(cc1Br)Oc1cc(Br)c(Br)cc1O2 | 0.0015 |  | 
26 | Clc1ccc2c(c1)Oc1cc(Cl)ccc1O2 | 3.2 |  | 
27 | CC(=O)Nc1ccc([C@@]2(O)C[N+](C)(C)CCO2)cc1 |  | 2070 | 
28 | Clc1cc2oc3c(Cl)c(Cl)cc(Cl)c3c2cc1Cl | 0.2 |  | 
29 | Clc1cc2oc3c(Cl)c(Cl)c(Cl)c(Cl)c3c2cc1Cl | 0.23 |  | 
30 | CCCC(=O)OCC[N+](C)(C)C |  | 229 | 
31 | C[C@@]1(O)C[N+](C)(C)CCO1 |  | 1730 | 
32 | Clc1cc2c(oc3c(Cl)c(Cl)c(Cl)cc32)c(Cl)c1Cl | 0.0468 |  | 
33 | Cc1c(O)cccc1[N+](C)(C)C |  | 141 | 
34 | CC(=O)Oc1cccc([N+](C)(C)C)c1 |  | 3.01 | 
35 | Clc1cc2c(oc3cc(Cl)c(Cl)c(Cl)c32)c(Cl)c1Cl | 0.27 |  | 
36 | Clc1c(Cl)c(Cl)c2c(c1Cl)Oc1ccccc1O2 | 1.3 |  | 
37 | Clc1ccc(-c2ccc(Cl)c(Cl)c2)cc1Cl | 0.71 |  | 
38 | C[N+](C)(C)CCCCCBr |  | 535 | 
39 | C[N+]1(C)CCO[C@@](O)(C(F)(F)F)C1 |  | 3830 | 
40 | Clc1ccc2oc3c(Cl)c(Cl)c(Cl)c(Cl)c3c2c1 | 0.12 |  | 
41 | C[N+](C)(C)CCCCBr |  | 597 | 
42 | C[N+]1(C)CCO[C@H](O)C1 |  | 1760 | 

Row | SMILES | EC50 [1] [µM] | IC50 [2] [µM] | further results
43 | Brc1cc2c(cc1Br)Oc1c(Br)c(Br)cc(Br)c1O2 | 0.017 |  | 
44 | C[N+](C)(C)c1cccc(O)c1 |  | 0.973 | 
45 | CC(C)(C)[C@@]1(O)C[N+](C)(C)CCO1 |  | 3710 | 
46 | COc1ccc(-n2nc3c4ccccc4[nH]cc-3c2=O)cc1 |  |  | pIC50 [3]: 10
47 | CCc1nc(C(=O)OC)cc2c1[nH]c1ccccc12 |  |  | pIC50 [3]: 5.12
48 | Clc1cc2c(cn1)[nH]c1ccccc12 |  |  | pIC50 [3]: 7.35
49 | CCCC(=O)c1cc2c(cn1)[nH]c1ccccc12 |  |  | pIC50 [3]: 7.64
50 | c1ccc2c(c1)[nH]c1c2ccc2[nH]c3ccccc3c21 |  |  | pIC50 [3]: 5.71
51 | CCOC(=O)c1cc2c(cn1)sc1ccccc12 |  |  | pIC50 [3]: 5.77
52 | C[N+](C)(C)c1cccc([N+](=O)[O-])c1 |  | 628 | 
53 | C[N+]1(C)CCO[C@@](O)(c2ccc([N+](=O)[O-])cc2)C1 |  | 5120 | 
54 | Cc1cccc2c1[nH]c1c3c4ccccc4nc-3c[nH]c12 |  |  | pIC50 [3]: 7.17
55 | Cn1c2ccccc2c2[nH]cc3nc4ccccc4c-3c21 |  |  | pIC50 [3]: 6.8
56 | CCOC(=O)c1cc2c(cn1)oc1ccccc12 |  |  | pIC50 [3]: 5.07
57 | CCC(C)Oc1cc2c3ccccc3nc-2c[nH]1 (stereo unspecified) |  |  | pIC50 [3]: 6.33
58 | c1ccc(COc2cc3c4ccccc4nc-3c[nH]2)cc1 |  |  | pIC50 [3]: 6
59 | Clc1cc(Cl)c(-c2cc(Cl)c(Cl)cc2Cl)cc1Cl [2,2',4,4',5,5'-HEXACHLOROBIPHENYL] | 79.4 |  | 
60 | Clc1cc2c(cc1Cl)Oc1cc(Cl)c(Cl)cc1O2 [2,3,7,8-TETRACHLORODIBENZO-P-DIOXIN] | 0.01 |  | 
61 | Clc1ccc(-c2cc(Cl)c(Cl)c(Cl)c2)cc1Cl [POLYCHLORINATED BIPHENYL 126] | 0.13 |  | 
